Columns and labels:
BT-549 cells = test: CD44 Western blot and CD44+/CD24-/low FACS in BT-549 cells; format: cell-based, human; settings: for ability to repress CD44 expression with knockdown of TFAP2A: BT549 cells, TFAP2A siRNA, Western blot FIG. 6C; for CD44+/CD24-/low population by FACS analysis / CD44 expression by Western blot: BT-549 cells, FIG. 6A, 10 μM, 2-4 days
Method: (§1) The human breast cancer cell lines (MCF-7, SKBR-3, BT-20, BT-549, MCF-10A) were obtained from American Type Culture Collection. sKD-C cells were subcloned from parental MCF-7 cells with stable knockdown of TFAP2C as described (Cyr et al., 2014). ER<-positive tumors and the basal cancer tumor were obtained from surgical resection specimens. Cell suspensions were prepared with gentle collagenase/hyaluronidase (Stemcells) (Ponti et al., 2005). A new cell line was established from the basal tumor cells, called IOWA-1T (manuscript in preparation).
(§2) Western blots were performed as previously described (Cyr et al., 2014; Kulak et al., 2013). For immunoprecipitations anti-TFAP2A, anti-GFP antibody (Life Technologies) or IgG (#sc-2025, Santa Cruz Biotechnology) were cross-linked with Dynabeads protein A (Life Technologies). MCF7 protein was incubated with Dynabeads protein A-Abs complex, protein complexes were washed with DPBS (Gibco) with 0.01% Tween (Research Products International Corp.), and eluted with SDS loading buffer.
(§3) Cells were plated ([…]/10 cm2) and treated with 10 μM gingolic or anacardic acid (Sigma) for 2-4 days and collected for qPCR, Western blot and FACS analysis.
(§4) FACS analysis was performed as previously described (Roederer and Hardy, 2001).

[1] = tested on: pancreatic carcinoma Panc-1 cell line; test: CD44 Western blot in Panc-1 pancreatic carcinoma; format: cell-based; settings: Panc-1, 96 h treatment; FIG. 18
Method: FIG. 18: Western blot, CD44 downregulation, Panc-1 pancreatic carcinoma was treated with ginkgolic and anacardic acids, 96 h.
Similar downregulation of stem cell marker CD44 was determined in pancreatic carcinoma Panc-1 cell line (FIG. 18) and undifferentiated thyroid cell line 8505c (FIG. 19) after 96 h treatment with SUMO inhibitors anacardic and ginkgolic acids. • Woodfield, G. W., Horan, A. D., Chen, Y. & Weigel, R. J. TFAP2C controls hormone response in breast cancer cells through multiple pathways of estrogen signaling. Cancer Res 67, 8439-8443 (2007). • Woodfield, G. W., Chen, Y., Bair, T. B., Domann, F. E. & Weigel, R. J. Identification of primary gene targets of TFAP2C in hormone responsive breast carcinoma cells. Genes Chromosomes Cancer 49, 948-962, doi:10.1002/gcc.20807 (2010). • Tan, S. K. et al. AP-2gamma regulates oestrogen receptor-mediated longrange chromatin interaction and gene transcription. Embo J 30, 2569-2581, doi:10.1038/emboj.2011.151 (2011). • Sorlie, T. et al. Gene expression patterns of breast carcinomas distinguish tumor subclasses with clinical implications. Proc Natl Acad Sci USA 98, 10869-10874. (2001). • Kao, J. et al. Molecular profiling of breast cancer cell lines defines relevant tumor models and provides a resource for cancer gene discovery. […]

sKD-C cells = test: Gene/protein expression and CD44+/CD24-/low FACS in sKD-C cells treated with sumoylation inhibitors; format: cell-based, human; settings: for CD44+/CD24-/low population by FACS analysis / CD44 expression by Western blot: s-KD-C cells, FIG. 6A; for ability to repress CD44 expression with knockdown of TFAP2A: TFAP2A siRNA, Western blot FIG. 6B
Method: as §1
Total RNA was isolated and analyzed as previously described. Expression values were normalized to the mean of 18S rRNA 4319413E-0803037 (Applied Biosystems) as endogenous control.
as §2, §3, §4

[2] = sKD-C cells, compared to vehicle treatment, mRNA and protein (FIG. 5E), 10 μM, 2-4 days

Row | SMILES | ability to repress CD44 expression with knockdown of TFAP2A (BT-549 cells) | CD44+/CD24-/low population by FACS analysis (BT-549 cells) | CD44 expression by Western blot (BT-549 cells) | stem cell marker CD44 (Western blot) [1] | CD44+/CD24-/low population by FACS analysis (sKD-C cells; 10 μM, 2-4 days) | CD44 expression by Western blot (sKD-C cells; 10 μM, 2-4 days) | ability to repress CD44 expression with knockdown of TFAP2A (sKD-C cells; sKD-C cells) | TFAP2C expression (sKD-C cells; sKD-C cells, compared to vehicle treatment, FIG. 5E) | FREM2 expression (sKD-C cells; sKD-C cells, compared to vehicle treatment, FIG. 5E, 10 μM, 2-4 days) | CD44 expression (sKD-C cells; [2]) | ERα expression (sKD-C cells; [2])
1 | CCCCCCCCCCCCCCCc1cccc(O)c1C(=O)O [AA, Anacardic acid (C15:0)] | completely eliminated | significantly reduced | inhibited | downregulation | significantly reduced | inhibited | completely eliminated |  |  |  | 
2 | CCCCCC/C=C\CCCCCCCc1cccc(O)c1C(=O)O [GA, (Z)-6-(Pentadec-8-enyl)-2-hydroxybenzoic acid] | completely eliminated | significantly reduced | inhibited | downregulation | significantly reduced | inhibited | completely eliminated | without altering | induced | repressed | induced
